Experimental data: patent publication US7884199B2, “HCV NS3-NS4 protease resistance mutants” (priority 2003, dated 2011)
Where two headings read alike, the source gives them in different places.

Key:
[1] = system: wild-type HCV Con1 sub-genomic replicon cells; assay: HCV replicon cell assay, 48-hour; type: cell-based, Hepatitis C virus; details: Hepatitis C virus, 48-hour assay
Description: (§1) Cells containing hepatitis C virus (HCV) replicon were maintained in DMEM containing 10% fetal bovine serum (FBS), 0.25 mg per ml of G418, with appropriate supplements (media A).
(§2) On day 1, replicon cell monolayer was treated with a trypsin:EDTA mixture, removed, and then media A was diluted into a final concentration of 100,000 cells per ml with. 10,000 cells in 100 ul were plated into each well of a 96-well tissue culture plate, and cultured overnight in a tissue culture incubator at 37° C.
On day 2, compounds (in 100% DMSO) were serially diluted into DMEM containing 2% FBS, 0.5% DMSO, with appropriate supplements (media B). […]
(§3) A Taqman real-time RT-PCR quantification assay was set up with two sets of specific primers and probe. […] Total RNA extractants from treated HCV replicon cells was added to the PCR reactions for quantification of both HCV and BVDV RNA in the same PCR well. […] The level of HCV RNA in each well was calculated according to a standard curve run in the same PCR plate. The percentage of inhibition or decrease of HCV RNA level due to compound treatment was calculated using the DMSO or no compound control as 0% of inhibition. The cytotoxicity of the compounds was measured using a mitochondrial enzyme-based cell viability assay, CellTiter 96 AQueous One Solution Cell Proliferation Assay (Promega).

[2] = target: T1, D168A mutant HCV NS3 serine protease domain (Hepatitis C virus genotype 1b, UniProt Q9WMX2, D1194A); assay: FRET enzyme assay, Ki; type: biochemical
T1 construct: A DNA fragment encoding residues Ala^1-Ser^181 of the HCV NS3 protease (GenBank CAB46913); hexa-histidine (C); made in house; host or cells: E. coli BL21/DE3 pLysS

[3] = target: T2, D168V mutant HCV NS3 serine protease domain (Hepatitis C virus genotype 1b, UniProt Q9WMX2, D1194V); assay: FRET enzyme assay, Ki; type: biochemical
T2 construct: A DNA fragment encoding residues Ala^1-Ser^181 of the HCV NS3 protease (GenBank CAB46913); hexa-histidine (C); made in house; host or cells: E. coli BL21/DE3 pLysS

[4] = system: series C (double-resistant) replicon cells; assay: HCV replicon cell assay, 48-hour; type: cell-based, Hepatitis C virus; details: 30 μM VX-950, series C replicon cells at day 52
[5] = target: T3, A156T mutant HCV NS3 serine protease domain (Hepatitis C virus genotype 1b, UniProt Q9WMX2, A1182T); assay: FRET enzyme assay, Ki; type: biochemical
T3 construct: A DNA fragment encoding residues Ala^1-Ser^181 of the HCV NS3 protease (GenBank CAB46913); hexa-histidine (C); made in house; host or cells: E. coli

A156V HCV replicon cells = assay: HCV replicon cell assay, 48-hour; type: cell-based, Hepatitis C virus
Source text: (§4) During the course of generating of the HCV sub-genomic replicon stable cell lines, several different patterns of adaptive mutations were identified. One pattern has three substitutions in the HCV nonstructural proteins, which were introduced into the original pBR322-HCV-Neo plasmid by site-directed mutagenesis to generate the second-generation sub-genomic replicon plasmid, pBR322-HCV-Neo-mADE. When the T7 run-offRNA transcripts from the Sca I-linearized pBR322-HCV-Neo-mADE plasmid were electroporated into Huh7 cells, stable replicon cell colonies were formed at a much higher efficiency than the original Con1 replicon RNA. The resistance mutations identified in this study were introduced into the pBR322-HCV-Neo-mADE replicon plasmid by site-directed mutagenesis. Stable replicon cell lines were generated using the T7 transcripts derived from either wild type pBR322-HCV-Neo-mADE or the ones with the resistance mutations.
as §1, §2
(§5) On day 2, compounds (in 100% DMSO) were serially diluted into DMEM containing 2% FBS, 0.5% DMSO, with appropriate supplements (media B). The final concentration of DMSO was maintained at 0.5% throughout the dilution series.
(§6) Media on the replicon cell monolayer was removed, and then media B containing various concentrations of compounds was added. Media B without any compound was added to other wells as no compound controls.
(§7) Cells were incubated with compound or 0.5% DMSO in media B for 48 hours in a tissue culture incubator at 37° C. At the end of the 48-hour incubation, the media was removed, and the replicon cell monolayer was washed once with PBS and stored at −80° C. prior to RNA extraction.
(§8) Culture plates with treated replicon cell monolayers were thawed, and a fixed amount of another RNA virus, such as Bovine Viral Diarrhea Virus (BVDV) was added to cells in each well. RNA extraction reagents (such as reagents from RNeasy kits) were added to the cells immediately to avoid degradation of RNA. Total RNA was extracted according the instruction of manufacturer with modification to improve extraction efficiency and consistency. Finally, total cellular RNA, including HCV replicon RNA, was eluted and stored at −80° C. until further processing.
(§9) A Taqman real-time RT-PCR quantification assay was set up with two sets of specific primers and probe. One was for HCV and the other was for BVDV. Total RNA extractants from treated HCV replicon cells was added to the PCR reactions for quantification of both HCV and BVDV RNA in the same PCR well. Experimental failure was flagged and rejected based on the level of BVDV RNA in each well. The level of HCV RNA in each well was calculated according to a standard curve run in the same PCR plate. The percentage of inhibition or decrease of HCV RNA level due to compound treatment was calculated using the DMSO or no compound control as 0% of inhibition. The cytotoxicity of the compounds was measured using a mitochondrial enzyme-based cell viability assay, CellTiter 96 AQueous One Solution Cell Proliferation Assay (Promega).
(§10) Table 6 summary: Three HCV sub-genomic replicon stable cell lines, including the wild-type, and two mutants, A156T and A156V, were generated using the T7 RNA runoff transcripts from the corresponding high efficiency Con 1 replicon plasmids.

A156T HCV replicon cells = assay: HCV replicon cell assay, 48-hour; type: cell-based, Hepatitis C virus
Source text: as §4, §1, §2, §5, §6, §7, §8, §9, §10

[6] = system: series B (BILN 2061-resistant) replicon cells; assay: HCV replicon cell assay, 48-hour; type: cell-based; details: Hepatitis C virus
[7] = target: T4, A156V mutant HCV NS3 serine protease domain (Hepatitis C virus genotype 1b, UniProt Q9WMX2, A1182V); assay: FRET enzyme assay, Ki; type: biochemical
T4 construct: A DNA fragment encoding residues Ala^1-Ser^181 of the HCV NS3 protease (GenBank CAB46913); hexa-histidine (C); made in house; host or cells: E. coli

D168V HCV replicon cells = assay: HCV replicon cell assay, 48-hour; type: cell-based, Hepatitis C virus; details: Hepatitis C virus, 48 h, read-out: Replicon IC50
Source text: as §4, §1, §2, §5, §6, §7, §8, §9
(§11) Four HCV sub-genomic replicon stable cell lines, including the wild type (wt), and three mutants, A156S, D168V and D168A, were generated using the T7 RNA runoff transcripts from the corresponding high efficiency Con1 replicon plasmids.

A156S HCV replicon cells = assay: HCV replicon cell assay, 48-hour; type: cell-based, Hepatitis C virus
Source text: as §4, §1, §2, §5, §6, §7, §8, §9, §11

D168A HCV replicon cells = assay: HCV replicon cell assay, 48-hour; type: cell-based, Hepatitis C virus; details: Hepatitis C virus, 48-hour assay
Source text: as §4, §1, §2, §5, §6, §7, §8, §9, §11

[8] = system: series A (VX-950-resistant) replicon cells; assay: HCV replicon cell assay, 48-hour; type: cell-based, Hepatitis C virus; details: Hepatitis C virus; series A replicon cells at day 56
[9] = system: wild type HCV replicon cells (high efficiency Con1 replicon); assay: HCV replicon cell assay, 48-hour; type: cell-based, Hepatitis C virus; details: 48-hour assay, HCV RNA level, read-out: Replicon IC50
Source text: as §4, §1
On day 1, replicon cell monolayer was treated with a trypsin:EDTA mixture, removed, and then media A was diluted into a final concentration of 100,000 cells per ml with. […]
as §3, with “(Promega). […]” for “(Promega).”

[10] = system: series D (double-resistant) replicon cells; assay: HCV replicon cell assay, 48-hour; type: cell-based, Hepatitis C virus
[11] = target: wild type HCV NS3 serine protease domain, genotype 1b (Hepatitis C virus genotype 1b, UniProt Q9WMX2); assay: biochemical
[12] = target: T5, A156S mutant HCV NS3 serine protease domain (Hepatitis C virus genotype 1b, UniProt Q9WMX2, A1182S); assay: FRET enzyme assay, Ki; type: biochemical
T5 construct: A DNA fragment encoding residues Ala^1-Ser^181 of the HCV NS3 protease (GenBank CAB46913); hexa-histidine (C); made in house; host or cells: E. coli BL21/DE3 pLysS

[13] = Hepatitis C virus, 48-hour assay

Q: `CCC[C@H](NC(=O)C1[C@H]2CCC[C@H]2CN1C(=O)[C@@H](NC(=O)[C@@H](NC(=O)c1cnccn1)C1CCCCC1)C(C)(C)C)C(=O)C(=O)NC1CC1` (some centres unmarked) [VX-950] was tested. Which IC50 [1] did it give?
A: The IC50 was 354 nM.

Q: And the Ki [2]?
A: The Ki was 150 nM.

Q: What about the Ki [3] of the same compound?
A: Its Ki is 43 nM.

Q: And the “reduction of HCV RNA” value [4]?
A: Its value is at most 50%.

Q: What about the Ki [5] of the same compound?
A: The Ki was 9900 nM.

Q: And the “decrease in sensitivity conferred by the mutation” value (A156V HCV replicon cells)?
A: Its value is “at least 75 fold”.

Q: What about the IC50 (A156V HCV replicon cells; [13]) of the same compound?
A: Its IC50 is over 30000 nM.

Q: What about the “reduction of HCV replicon RNA” value (A156V HCV replicon cells; up to 30 μM VX-950) of the same compound?
A: Its value is “No significant reduction”.

Q: And the “decrease in sensitivity conferred by the mutation” value (A156T HCV replicon cells)?
A: The value was “at least 75 fold”.

Q: What about the IC50 (A156T HCV replicon cells; [13]) of the same compound?
A: Its IC50 is over 30000 nM.

Q: What about the “reduction of HCV replicon RNA” value (A156T HCV replicon cells; up to 30 μM VX-950) of the same compound?
A: The value was “No significant reduction”.

Q: What about the IC50 [6] of the same compound?
A: The IC50 was about 300 nM.

Q: What about the Ki [7] of the same compound?
A: Its Ki is 33000 nM.

Q: And the IC50 (D168V HCV replicon cells)?
A: Its IC50 is 163 nM.

Q: And the IC50 (A156S HCV replicon cells; Hepatitis C virus)?
A: Its IC50 is 4650 nM.

Q: And the IC50 (A156S HCV replicon cells; Hepatitis C virus, 48 h, 48-hour assay, read-out: Replicon IC50)?
A: Its IC50 is 4650 nM.

Q: And the IC50 (A156S HCV replicon cells; read-out: Replicon IC50, 48-hour assay)?
A: The IC50 was 5090 nM.

Q: And the IC50 (D168A HCV replicon cells)?
A: Its IC50 is 193 nM.

Q: What about the IC50 [8] of the same compound?
A: Its IC50 is 8100 to 12000 nM.

Q: And the IC50 [9]?
A: Its IC50 is 402 nM.

Q: What about the IC50 ([9]; Hepatitis C virus, 48 h) of the same compound?
A: The IC50 was 400 nM.

Q: What about the “reduction of HCV RNA” value ([10]; 30 μM VX-950, series D replicon cells at day 52) of the same compound?
A: The value was at most 50%.

Q: What about the “IC50 higher than against the series B replicon cells” value ([10]; series D replicon cells at day 52) of the same compound?
A: The value was “more than 100 fold”.

Q: And the Ki [11]?
A: Its Ki is 100 nM.

Q: And the Ki [12]?
A: Its Ki is 2900 nM.

Q: And the “Ki higher than against the wild type protease” value [12]?
A: Its value is 29 fold.
